Patent publication US11407711B2, “Benzamide compound and use thereof” (METISA BIOTECHNOLOGY CO., LTD., priority 2018, dated 2022)
Where two headings read alike, the source gives them in different places.

Tests used:
Type in all cases: in vivo
[1] = test system: armyworm; assay: Insecticidal activity against armyworm (Airbrush spray on maize blade segments); settings: 72 h, read-out: fatality rate against armyworm
Description: (§1) The compound to be tested was dissolved by a mixed solvent of acetone/methanol (1:1), and then diluted by water containing 0.1% (wt) Tween 80 to the required concentration.
(§2) An Airbrush spray method was adopted for the determination of the activity, with armyworm, Plutella xylostella and Chilo suppressalis as targets.
Determination method: maize blades were cut into 2 cm (length) segments; with the pressure of Airbrush spray being 10 psi (about 0.7 kg/cm^2), both sides of each blade segment were sprayed with the amount of 0.5 ml. After dried in the shade, each segment was inoculated with 10 3rd-instar larvaes, 3 repeats for each segment. And then, the treated segments were put into an observation room (25° C., relative humidity: 60-70%) for cultivation; the number of the survivals was surveyed 1 d, 2 d and 3 d after administration, and then the death rate was calculated.

[2] = test system: Plutella xylostella; assay: Insecticidal activity against Plutella xylostella (Airbrush spray on cabbage leaf discs)
Description: as §1, §2
Determination method: cabbage blades were punched into 2 cm (diameter) leaf discs by a puncher; with the pressure of Airbrush spray being 10 psi (about 0.7 kg/cm^2), both sides of each leaf disc were sprayed with the amount of 0.5 ml. After dried in the shade, each leaf disc was inoculated with 10 3rd-instar larvaes, 3 repeats for each leaf disc. And then, the treated leaf discs were put into an observation room (25° C., relative humidity: 60-70%) for cultivation; the number of the survivals was surveyed 1 d, 2 d and 3 d after administration, and then the death rate was calculated.

[3] = test system: Chilo suppressalis; assay: Insecticidal activity against Chilo suppressalis (spray on rice seedlings, stems fed to larvae); settings: for pest or weed control at 1 µg/mL / pest or weed control at 4 µg/mL / pest or weed control at 40 µg/mL: Chilo suppressalis, 72 h, read-out: fatality rate against Chilo suppressalis
Description: as §1, §2
Determination method: 1) preparation of rice seedlings: rice was cultivated in small plastic cups (diameter: 4.5 cm and height: 4 cm) at a constant temperature room (temperature: 26-28° C., relative humidity: 60-80% around and illumination: 16 hL:8 hD), after the rice grew to a 4-5 leaf stage, vigorous and uniform-growth rice seedlings were selected and treated with an insecticide, 3 repeats for each treatment. 2) Preparation of pests for test: 3rd-instar larvaes of Chilo suppressalis fed continuously in the room. 3) Inoculation of pests on rice stems by spray. The whole plants of the rice seedlings were sprayed by a spray method uniformly, with the dose of 15 ml for each treatment. The blank control was treated first, and the above operation was repeated in an order of lower to higher test concentration. After sprayed, rice seedlings were placed in the shade to dry the insecticide liquor, and then stalks about 5 cm above the basal part of the stems were cut to be fed to the pests for test. Glass petri dishes (diameter: […]) were prepared, cushioned by filter paper at the bottom thereof, and subjected to water addition for moisturizing; about 20 pieces of rice stems were put in each dish and inoculated with 10 larvaes; then the petri dishes were closed by non-woven fabrics and placed in a constant temperature room for culture. The number of survivals was surveyed 3 d after administration.

[4] = Plutella xylostella, foliar, 72 h, read-out: Fatality rate (%, 3 d after administration) 0.5 mg/L, Table 73, 0.5 mg/L, 3 d after administration
[5] = Plutella xylostella, foliar, 72 h, read-out: Fatality rate (%, 3 d after administration) 1 mg/L, Table 73, 1 mg/L, 3 d after administration
[6] = Plutella xylostella, foliar, 72 h, read-out: Fatality rate (%, 3 d after administration) 10 mg/L, Table 71, 10 mg/L, 3 d after administration
[7] = Plutella xylostella, foliar, 72 h, read-out: fatality rate against Plutella xylostella, 0.5 mg/L, 3 d after administration
[8] = Plutella xylostella, foliar, 72 h, read-out: fatality rate against Plutella xylostella, 1 mg/L, 3 d after administration

Row | Compound | pest or weed control at 0.1 µg/mL [1] | pest or weed control at 0.5 µg/mL [1] | pest or weed control at 0.5 µg/mL [2, 4] | pest or weed control at 1 µg/mL [2, 5] | pest or weed control at 10 µg/mL [2, 6] | pest or weed control at 0.5 µg/mL [2, 7] | pest or weed control at 1 µg/mL [2, 8] | pest or weed control at 4 µg/mL [3] | pest or weed control at 40 µg/mL [3] | further results
1 | CN(C(=O)c1ccccc1)c1cccc(C(=O)N(CC#N)c2c(Br)cc(C(F)(C(F)(F)F)C(F)(F)F)cc2Br)c1F [Compound 30.321] | ≥ 90% | ≥ 90% | 100% | 100% | 100% | ≥ 90% | ≥ 90% | ≥ 90% | ≥ 90% | pest or weed control at 0.05 µg/mL [1]: ≥ 90%; pest or weed control at 0.5 µg/mL ([2]; Plutella xylostella, foliar, 72 h, read-out: Fatality rate (%, 3 d after administration) 0.5 mg/L, Table 74, 0.5 mg/L, 3 d after administration): 100%; pest or weed control at 0.05 µg/mL ([2]; Plutella xylostella, foliar, 72 h, read-out: fatality rate against Plutella xylostella, 0.05 mg/L, 3 d after administration): ≥ 90%; Fatality rate (%, 3 d after administration) 0.05 mg/L ([2]; Table 74, 0.05 mg/L, 3 d after administration): 100%; Fatality rate (%) 1 d after administration ([2]; Table 75, fast-acting efficacy, dose 0.5 mg/L, 1 d after administration): 90%; Fatality rate (%) 2 d after administration ([2]; Table 75, fast-acting efficacy, dose 0.5 mg/L, 2 d after administration): 100%; Fatality rate (%) 3 d after administration ([2]; Table 75, fast-acting efficacy, dose 0.5 mg/L, 3 d after administration): 100%; pest or weed control at 1 µg/mL [3]: ≥ 90%; Fatality rate (%, 3 d after administration) 1.25 mg/L ([3]; Table 77, 1.25 mg/L, 3 d after administration): 93.5%; Fatality rate (%, 3 d after administration) 2.5 mg/L ([3]; Table 77, 2.5 mg/L, 3 d after administration): 100%; Fatality rate (%, 3 d after administration) 5 mg/L ([3]; Table 77, 5 mg/L, 3 d after administration): 100%
2 | N#CCN(C(=O)c1cccc(NC(=O)c2ccccc2)c1F)c1c(Br)cc(C(F)(C(F)(F)F)C(F)(F)F)cc1Br [Compound 16.321] | ≥ 90% | ≥ 90% | 100% | 100% | 100% | ≥ 90% | ≥ 90% | ≥ 90% | ≥ 90% | –
3 | Cc1cc(C(F)(C(F)(F)F)C(F)(F)F)cc(Br)c1NC(=O)c1cccc(N(CC#N)C(=O)c2ccccc2)c1F [Compound 6.321] | – | ≥ 90% | – | – | 100% | – | ≥ 90% | – | ≥ 90% | pest or weed control at 1 µg/mL ([2]; Plutella xylostella, foliar, 72 h, read-out: Fatality rate (%, 3 d after administration) 1 mg/L, Table 72, 1 mg/L, 3 d after administration): 98.5%; Fatality rate (%, 3 d after administration) 5 mg/L ([2]; Table 72, 5 mg/L, 3 d after administration): 100%
4 | N#CCN(C(=O)c1ccc(C(F)(F)F)cc1)c1cccc(C(=O)Nc2c(Br)cc(C(F)(C(F)(F)F)C(F)(F)F)cc2Br)c1F [Compound 2.43] | – | – | – | – | – | – | – | – | – | pest or weed control at 0.05 µg/mL ([1]; 0.05 mg/L, 3 d after administration, 3rd-instar larvae): ≥ 90%; pest or weed control at 0.1 µg/mL ([1]; 0.1 mg/L, 3 d after administration, 3rd-instar larvae): ≥ 90%; pest or weed control at 0.5 µg/mL ([1]; 0.5 mg/L, 3 d after administration, 3rd-instar larvae): ≥ 90%; pest or weed control at 0.5 µg/mL ([2]; Plutella xylostella, foliar, 72 h, 0.5 mg/L, 3 d after administration, read-out: fatality rate against Plutella xylostella): ≥ 90%; pest or weed control at 1 µg/mL ([2]; Plutella xylostella, foliar, 72 h, 1 mg/L, 3 d after administration, read-out: fatality rate against Plutella xylostella): ≥ 90%; pest or weed control at 10 µg/mL ([2]; Plutella xylostella, foliar, 72 h, Table 71, 10 mg/L, 3 d after administration, read-out: Fatality rate (%, 3 d after administration) 10 mg/L): 100%; pest or weed control at 0.5 µg/mL ([2]; Plutella xylostella, foliar, 72 h, Table 73, 0.5 mg/L, 3 d after administration, read-out: Fatality rate (%, 3 d after administration) 0.5 mg/L): 100%; pest or weed control at 1 µg/mL ([2]; Plutella xylostella, foliar, 72 h, Table 73, 1 mg/L, 3 d after administration, read-out: Fatality rate (%, 3 d after administration) 1 mg/L): 100%; pest or weed control at 1 µg/mL ([3]; 1 mg/L, survivals surveyed 3 d after administration): ≥ 90%; pest or weed control at 4 µg/mL ([3]; 4 mg/L, survivals surveyed 3 d after administration): ≥ 90%; pest or weed control at 40 µg/mL ([3]; 40 mg/L, survivals surveyed 3 d after administration): ≥ 90%
5 | N#CCN(C(=O)c1ccccc1)c1cccc(C(=O)Nc2c(Cl)cc(C(F)(C(F)(F)F)C(F)(F)F)cc2Cl)c1F [Compound 3.321] | ≥ 90% | ≥ 90% | – | – | 100% | – | ≥ 90% | ≥ 90% | ≥ 90% | –
